Assays:
PDK = conditions: stated in discussion, no own experiment; cited from earlier work
PDK-1 = PDK-1 (Homo sapiens, UniProt Q15118); assay: PDK-1 fluorescence polarization assay (fluorescein-labelled ATP site probe); assay type: binding; design: PDK-1: residues 30-436; made in house; host or cells: E. coli BL21; conditions: titration with a probe concentration of 10 nM; read-out: Kd of PDK-1 protein with the probe
Procedure: carbamoyl]-2-(6-hydroxy-3-oxo-3H-xanthen-9-yl)benzoic acid), which binds to the ATP site of PDK resulting in an increase in anisotropy.
The HSP-90ß FP assay was conducted as previously described.

Sequence of PDK-1 (Q15118 30-436): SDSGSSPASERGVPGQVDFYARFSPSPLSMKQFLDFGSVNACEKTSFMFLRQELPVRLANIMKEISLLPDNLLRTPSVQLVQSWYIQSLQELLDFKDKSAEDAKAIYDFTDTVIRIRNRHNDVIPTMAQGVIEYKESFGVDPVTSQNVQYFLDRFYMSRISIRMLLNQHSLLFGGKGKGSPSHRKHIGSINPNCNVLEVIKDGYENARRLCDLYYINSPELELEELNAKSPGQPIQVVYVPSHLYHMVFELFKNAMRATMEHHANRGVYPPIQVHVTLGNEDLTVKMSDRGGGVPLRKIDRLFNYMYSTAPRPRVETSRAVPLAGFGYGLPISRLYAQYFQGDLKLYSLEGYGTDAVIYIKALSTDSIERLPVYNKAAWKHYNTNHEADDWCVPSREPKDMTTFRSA

| Structure (SMILES) | Concentrations required to observe modulation of glycolytic activity and cytotoxicity (PDK) [µM] | Kd (PDK-1) [nM] |
| --- | --- | --- |
| O=C(O)C(Cl)Cl [DCA] | 5000 to 20000 | – |
| CCNC(=O)c1noc(-c2cc(Cl)c(O)cc2O)c1-c1ccc(CNC(=O)c2ccc(-c3c4ccc(=O)cc-4oc4cc(O)ccc34)c(C(=O)O)c2)cc1 [VER-160364, 5-[({4-[5-(5-chloro-2,4-dihydroxyphenyl)-3-(ethylcarbamoyl)-1,2-oxazol-4-yl]phenyl}methyl)carbamoyl]-2-(6-hydroxy-3-oxo-3H-xanthen-9-yl)benzoic acid] | – | 30 |

Source: publication PMC4350332 (Oncotarget, 2014)
